Results as given in US20020132792A1, “Aryl-substituted indirubin derivatives, their production and use” (Schering AG, priority 2000, published 2002).

Experiments:
CDK2/CycE = target: T1, CDK2/CycE (Homo sapiens, UniProt P24941); experiment: CDK2/CycE kinase assay; assay type: biochemical; conditions: recombinant CDK2/CycE-GST, histone IIIS substrate, 0.5 μm ATP, 15 minutes at 22° C.
T1 construct: GST; purchased Dr. Dieter Marmé, Klinik für Tumorbiologie, Freiburg (obtained from an outside laboratory); host or cells: baculovirus-infected Sf9 insect cells
Description: Recombinant CDK2- and CycE-GST-fusion proteins, purified from baculovirus-infected insect cells (Sf9), were obtained by Dr. Dieter Marmé, Klinik für Tumorbiologie [Clinic for Tumor Biology], Freiburg. Histone IIIS, which was used as a kinase substrate, was purchased by the Sigma Company.
CDK2/CycE (50 ng/measuring point) was incubated for 15 minutes at 22° C. in the presence of various concentrations of test substances (0 μm, as well as within the range of 0.01-100 μm) in assay buffer [50 mmol of tris/HCl pH 8.0, 10 mmol of MgCl2, 0.1 mmol of Na ortho-vanadate, 1.0 mmol of dithiothreitol, 0.5 μm of adenosine triphosphate (ATP), 10 μg/measuring point of histone IIIS, 0.2 μCi/measuring point of ^33P-gamma ATP, 0.05% NP40, 12.5% dimethyl sulfoxide]. The reaction was stopped by adding EDTA solution (250 mmol, pH 8.0, 14 μl/measuring point).
From each reaction batch, 10 μl was applied to P30 filter strips (Wallac Company), and non-incorporated ^33P-ATP was removed by subjecting the filter strips to three washing cycles for 10 minutes each in 0.5% phosphoric acid. After the filter strips were dried for one hour at 70° C., the filter strips were covered with scintillator strips (MeltiLex™ A, Wallac Company) and baked for one hour at 90° C. The amount of incorporated ^33P (substrate phosphorylation) was determined by scintillation measurement in a gamma-radiation measuring device (Wallac).

MCF-7 cells = experiment: Proliferation assay (crystal violet); assay type: cell-based; conditions: MCF7, 96 h, MCF-7 human tumor cells, 4 days incubation
Description: Cultivated human tumor cells (as indicated) were flattened out at a density of 5000 cells/measuring point in a 96-well multititer plate in 200 μl of the corresponding growth medium. After 24 hours, the cells of one plate (zero-point plate) were colored with crystal violet (see below), while the medium of the other plates was replaced by fresh culture medium (200 μl), to which the test substances were added in various concentrations (0 μm, as well as in the range of 0.01-30 μm; the final concentration of the solvent dimethyl sulfoxide was 0.5%). The cells were incubated for 4 days-in the presence of test substances. The cell proliferation was determined by coloring the cells with crystal violet: the cells were fixed by adding 20 μl/measuring point of a 11% glutaric aldehyde solution for 15 minutes at room temperature. After subjecting the fixed cells to three washing cycles with water, the plates were dried at room temperature. The cells were colored by adding 100 μL/measuring point of a 0.1% crystal violet solution (pH was set at 3 by adding acetic acid). […] The extinction was determined by photometry at a wavelength of 595 nm. The change of cell growth, in percent, was calculated by standardization of the measured values to the extinction values of the zero-point plate (=0%) and the extinction of the untreated (0 μm) cells (=100%).

SMILES	IC50 (CDK2/CycE) [nM]	IC50 (MCF-7 cells) [nM]	melting point [°C]
O=C1Nc2ccc(-c3cc(C(F)(F)F)cc(C(F)(F)F)c3)cc2C1=C1Nc2ccccc2C1=O [Example 1.3]	600	–	–
CC(C)(C)c1ccc(-c2ccc3c(c2)C(=C2Nc4ccccc4C2=O)C(=O)N3)cc1 [Example 1.5]	300	–	–
O=C1Nc2ccc(-c3ccc(Cl)cc3)cc2C1=C1Nc2ccccc2C1=O [Example 1.4]	30	500	–
COc1ccc(-c2ccc3c(c2)/C(=C2/Nc4ccccc4C2=O)C(=O)N3)cc1 [Example 1.0, 5-(4-Methoxyphenyl)-indirubin]	> 5000	–	> 300
O=C1Nc2ccc(-c3ccccc3)cc2C1=C1Nc2ccccc2C1=O [Example 1.1]	1000	–	–
CC(C)(C)[Si](C)(C)Oc1cccc(-c2ccc3c(c2)C(=C2Nc4ccccc4C2=O)C(=O)N3)c1 [Example 1.2]	150	4000	–
